Laboratory results as given in PMC6100475, “Development and Validation of a HPLC-MS/MS Method for Simultaneous Determination of Twelve Bioactive Compounds in Epimedium: Application to a Pharmacokinetic Study in Rats” (Molecules : A Journal of Synthetic Chemistry and Natural …, 2018).

Columns and labels:
[1] = Pharmacokinetic study in rats after oral administration of Epimedium extract (HPLC-MS/MS of plasma); assay type: in vivo, Male Sprague-Dawley rats; details: rat plasma, single oral dose of Epimedium extract 10 g/kg; for AUC(0-inf) / half-life / AUC / MRT / MRT inf: male, Sprague-Dawley; for AUC(0-inf) / half-life / AUC / MRT / MRT inf / Cmax1 / Tmax1: n = 6; for AUC: read-out: AUC(0-tn); for MRT: read-out: MRT(0-tn); for MRT inf: read-out: MRT(0-∞); for Cmax2 / Tmax2: n = 6, second peak
Experimental: An Agilent 1200 Series HPLC system, which consisted of a binary pump (G1312A), an auto-sampler (G1367B), an online degasser unit (G1322A), along with temperature-controlled column compartment (G1316A), was used for the analysis. The twelve compounds and IS were separated on a CORTECS®C18 column (4.6 mm × 150 mm, 2.7 μm) maintained at 30 °C with the mobile phase consisted of acetonitrile (A) and 0.1% (v/v) formic acid (B). The flow rate was 0.3 mL/min. The gradient elution was as follows: 0–4 min, 20–50% A; 4–5 min, 50–60% A; 5–15 min, 60–70% A. The injection volume was 5 μL.
The tandem mass spectrometry was performed on a triple-quadrupole mass spectrometer equipped with an electrospray ionization (ESI) source (Agilent G6430A system). Nitrogen gas served as the nebulizer, drying, and collision gas. Analytes were monitored by SRM in negative mode with the electrospray ionization parameters optimized as follows: ion spray voltage of −4000 V, capillary temperature of 350 °C, auxiliary nitrogen pressure of 20 psi, drying gas flow of 9 L/min. The mass spectrometric parameters of precursor ion, product ion, collision energy (CE) and fragmentor (Frag) for analytes are listed in Table 6. Both the collision energy and the fragmentor were optimized for each compound by infusion of the standard solutions of methanol to mass spectrometry directly. The peak in sample was recognized as the target compound if the retention time, precursor ion, and product ion are same as the stand. For each analyte, the most abundant product ion was chosen for quantification. All analytes were quantified using the 6-point calibration curve. The peak areas were used for quantification following an internal algorithm. For each batch of samples processed and analyzed, the determined concentration of each compound in the QC samples, as quantified by the standard curves, was required to fall within ±15% of the known concentration for the data to be included in the final analysis.
Male Sprague-Dawley rats (220 ± 10) g were obtained from the Beijing HUAFUKANG Bioscience Co., Inc. (Beijing, China). Six male rats were acclimatized to the facilities for a week and fasted for 12 h, but allowed free access to water, before dosing. The Epimedium extract was suspended in 0.5% carboxymethyl cellulose sodium (CMC-Na) aqueous solution and given to each rat by oral administration at a single dose of 10 g/kg. Blood samples (250 μL) were collected from the fossa orbitalis of rats at 0 (before dosing), 0.03, 0.08, 0.17, 0.25, 0.5, 1, 2, 4, 6, 8, 10, 12 and 24 h after dosing. Then, the blood samples were centrifuged at 6000 g for 10 min to obtain the plasma, and the plasma was removed to another EP tube and frozen at −70 °C until analysis. The rat plasma concentration–time data of 12 analytes were computed by the software “Drug and Statistics 1.0” (DAS 1.0)

[2] = set-up: method as in PMID 20705408; details: previous reports ref 19; cited from earlier work

Row | AUC(0-inf) [1] | half-life [1] | AUC [1] | MRT [1] | MRT inf [1] | Cmax1 [1] | Tmax1 [1] | Cmax2 [1] | Tmax2 [1] | SMILES | bimodal phenomenon of plasma concentration–time curve [2]
1 | 1780 ± 352 ng·h/mL | 13.8 ± 7.09 h | 1610 ± 349 ng·h/mL | 12 ± 0.71 h | 14.3 ± 2 h | 20.35 ± 10.26 ng/mL | 0.18 ± 0.03 h | 203.50 ± 97.03 ng/mL | 11.67 ± 0.82 h | COc1ccc(-c2oc3c(CC=C(C)C)c(O)cc(O)c3c(=O)c2O[C@@H]2O[C@@H](C)[C@H](O)[C@@H](O)[C@H]2O[C@@H]2O[C@H](CO)[C@@H](O)[C@H](O)[C@H]2O)cc1 [sagittatoside A] | 
2 | 600 ± 219 ng·h/mL | 12.5 ± 6.85 h | 550 ± 199 ng·h/mL | 10.8 ± 2.33 h | 14.1 ± 3.98 h | 82.79 ± 7.61 ng/mL | 0.22 ± 0.04 h | 59.34 ± 26.24 ng/mL | 9.33 ± 0.94 h | COc1ccc(-c2oc3c(CC=C(C)C)c(OC4OC(CO)C(O)C(O)C4O)cc(O)c3c(=O)c2OC2OC(C)C(O)C(O)C2OC2OC(CO)C(O)C(O)C2O)cc1 (stereo not shown) [epimedin A] | bimodal phenomenon
3 | 1070 ± 212 ng·h/mL | 3.64 ± 3.68 h | 946 ± 250 ng·h/mL | 6.98 ± 1.14 h | 8.37 ± 2.39 h | 316.73 ± 59.06 ng/mL | 0.19 ± 0.07 h | 129.90 ± 77.04 ng/mL | 7.67 ± 0.75 h | COc1ccc(-c2oc3c(CC=C(C)C)c(OC4OC(CO)C(O)C(O)C4O)cc(O)c3c(=O)c2OC2OC(C)C(O)C(O)C2OC2OCC(O)C(O)C2O)cc1 (stereo not shown) [epimedin B] | bimodal phenomenon
4 | 325 ± 209 ng·h/mL | 0.41 ± 0.19 h | 323 ± 205 ng·h/mL | 2.71 ± 0.79 h | 2.75 ± 0.97 h | 350.28 ± 195.96 ng/mL | 0.16 ± 0.05 h |  |  | COc1ccc(-c2oc3c(CC=C(C)C)c(O[C@@H]4O[C@H](CO)[C@@H](O)[C@H](O)[C@H]4O)cc(O)c3c(=O)c2O[C@@H]2O[C@@H](C)[C@H](O)[C@@H](O)[C@H]2O)cc1 [icariin] | 
5 | 919 ± 215 ng·h/mL | 17.9 ± 8.23 h | 850 ± 269 ng·h/mL | 9.33 ± 2.34 h | 12.5 ± 2.59 h | 135.22 ± 31.26 ng/mL | 0.22 ± 0.04 h | 103.20 ± 33.10 ng/mL | 7.67 ± 0.75 h | COc1ccc(-c2oc3c(CC=C(C)C)c(OC4OC(CO)C(O)C(O)C4O)cc(O)c3c(=O)c2OC2OC(C)C(O)C(O)C2OC2OC(C)C(O)C(O)C2O)cc1 (stereo not shown) [epimedin C] | 

Continued, molecule first:

Row | SMILES | AUC(0-inf) [1] | half-life [1] | AUC [1] | MRT [1] | MRT inf [1] | Cmax1 [1] | Tmax1 [1] | Cmax2 [1] | Tmax2 [1] | bimodal phenomenon of plasma concentration–time curve [2]
6 | COc1ccc2c(c1O)-c1c(O)c(OC)cc3c1[C@H](C2)[N+](C)(C)CC3 [magnoflorine] | 4000 ± 970 ng·h/mL | 17.8 ± 8.25 h | 3680 ± 875 ng·h/mL | 9.86 ± 0.75 h | 12.5 ± 1.72 h | 411.40 ± 110.77 ng/mL | 0.18 ± 0.03 h | 275.67 ± 89.36 ng/mL | 10.67 ± 1.63 h | 
7 | COc1ccc(-c2oc3c(CC=C(C)C)c(O)cc(O)c3c(=O)c2O[C@@H]2O[C@@H](C)[C@H](O)[C@@H](O)[C@H]2O)cc1 [baohuoside I] | 1680 ± 599 ng·h/mL | 13.2 ± 4.8 h | 1450 ± 616 ng·h/mL | 10.8 ± 1.21 h | 15.7 ± 4.1 h | 65.20 ± 33.56 ng/mL | 0.38 ± 0.14 h | 170.73 ± 66.97 ng/mL | 10.00 ± 1.79 h | bimodal phenomenon
8 | O=C(/C=C/c1ccc(O)c(O)c1)O[C@@H]1C[C@@](O)(C(=O)O)C[C@@H](O)[C@@H]1O [neochlorogenic acid] | 269 ± 70.9 ng·h/mL | 0.64 ± 0.27 h | 264 ± 68.2 ng·h/mL | 3.18 ± 1.57 h | 3.25 ± 1.97 h | 205.96 ± 75.12 ng/mL | 0.19 ± 0.05 h |  |  | 
9 | CC(C)=CCc1c(O)cc(O)c2c(=O)c(OC3OC(C)C(O)C(O)C3O)c(-c3ccc(O)cc3)oc12 (stereo not shown) [baohuoside II] | 355 ± 144 ng·h/mL | 6.93 ± 2.94 h | 246 ± 133 ng·h/mL | 11.5 ± 1.99 h | 16.5 ± 3.06 h | 6.87 ± 4.58 ng/mL | 0.18 ± 0.03 h | 29.17 ± 7.70 ng/mL | 10.67 ± 1.03 h | 
10 | COc1ccc(-c2oc3c(CC=C(C)C)c(O)cc(O)c3c(=O)c2OC2OC(C)C(O)C(O)C2OC2OCC(O)C(O)C2O)cc1 (stereo not shown) [sagittatoside B] | 1040 ± 202 ng·h/mL | 9.38 ± 2.11 h | 854 ± 171 ng·h/mL | 11.7 ± 1.17 h | 14.9 ± 2.09 h | 19.38 ± 9.79 ng/mL | 0.20 ± 0.04 h | 112.97 ± 44.50 ng/mL | 11.00 ± 1.67 h | 
11 | O=C(/C=C/c1ccc(O)c(O)c1)O[C@@H]1C[C@](O)(C(=O)O)C[C@@H](O)[C@H]1O [chlorogenic acid] | 886 ± 377 ng·h/mL | 0.45 ± 0.3 h | 880 ± 365 ng·h/mL | 3.85 ± 1.28 h | 3.91 ± 1.32 h | 540.28 ± 225.18 ng/mL | 0.19 ± 0.05 h |  |  | 
12 | O=C(/C=C/c1ccc(O)c(O)c1)O[C@H]1[C@H](O)C[C@](O)(C(=O)O)C[C@H]1O [cryptochlorogenic acid] | 404 ± 169 ng·h/mL | 0.53 ± 0.24 h | 398 ± 171 ng·h/mL | 3.75 ± 1.91 h | 3.82 ± 2.48 h | 269.77 ± 114.07 ng/mL | 0.19 ± 0.05 h |  |  | 
